Assay results taken from ChEMBL document CHEMBL1201862, “PubChem BioAssay data set” (2004).
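48-hour exposure; five concentrations; linearly interpolated endpoints. GI50 marks 50% less growth.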 Activity calls are given as the source filed them. Rule as the data show it: active = GI50 up to about 1.1 µM and inactive = higher.

What was measured:
Assay in all cases: growth of human tumour cells (NCI), 48 h
HOP-62 = test system: HOP-62
HCC 2998 = test system: HCC 2998
OVCAR-5 = test system: OVCAR-5
DU-145 = test system: DU-145
SK-MEL-28 = test system: SK-MEL-28
MCF7 = test system: MCF7
PC-3 = test system: PC-3
HCT-116 = test system: HCT-116
SF-295 = test system: SF-295
786-0 = test system: 786-0
OVCAR-3 = test system: OVCAR-3
MOLT-4 = test system: MOLT-4
NCI-H522 = test system: NCI-H522
T47D = test system: T47D
UACC-62 = test system: UACC-62
SNB-75 = test system: SNB-75
Malme-3M = test system: Malme-3M
SNB-19 = test system: SNB-19
HT-29 = test system: HT-29

Structure (SMILES)	GI50 (HOP-62)	GI50 (HCC 2998)	GI50 (OVCAR-5)	GI50 (DU-145)	GI50 (SK-MEL-28)	GI50 (MCF7)	GI50 (PC-3)	GI50 (HCT-116)	GI50 (SF-295)	GI50 (786-0)	GI50 (OVCAR-3)	GI50 (MOLT-4)	GI50 (NCI-H522)	GI50 (T47D)	GI50 (UACC-62)	GI50 (SNB-75)	GI50 (Malme-3M)	GI50 (SNB-19)	GI50 (HT-29)
COc1ccccc1Nc1nc(N)nc(N)c1N	> 100 µM (inactive)	> 100 µM (inactive)	> 100 µM (inactive)	> 100 µM (inactive)	> 100 µM (inactive)	29.2 µM (inactive)	90.8 µM (inactive)	19 µM (inactive)	28.6 µM (inactive)	33.4 µM (inactive)	43.9 µM (inactive)	14.7 µM (inactive)	18.1 µM (inactive)	58.5 µM (inactive)	57.5 µM (inactive)	> 100 µM (inactive)	> 100 µM (inactive)	> 100 µM (inactive)	45.4 µM (inactive)
COc1cc(C2SCC(=O)N2c2ccc(Cl)c(Cl)c2)cc(OC)c1OC (configuration not stated)	24.2 µM (inactive)	> 56.9 µM (inactive)	7.5 µM (inactive)	> 38.5 µM (inactive)	> 50.9 µM (inactive)	38.2 µM (inactive)	54.2 µM (inactive)	25.5 µM (inactive)	29.8 µM (inactive)	> 55.6 µM (inactive)	34.1 µM (inactive)	14.7 µM (inactive)	22.1 µM (inactive)	10.6 µM (inactive)	0.838 µM (active)	76.6 µM (inactive)	> 100 µM (inactive)	> 100 µM (inactive)	23.1 µM (inactive)
Oc1[nH]c(Nc2ccc(F)c(Cl)c2)nc2ncnc1-2	> 100 µM (inactive)	> 100 µM (inactive)	> 100 µM (inactive)	> 100 µM (inactive)	> 100 µM (inactive)	> 100 µM (inactive)	> 100 µM (inactive)	> 100 µM (inactive)	> 100 µM (inactive)	82 µM (inactive)	> 100 µM (inactive)	7.29 µM (inactive)	> 100 µM (inactive)	> 100 µM (inactive)	> 100 µM (inactive)	25.9 µM (inactive)	> 100 µM (inactive)	> 100 µM (inactive)	> 100 µM (inactive)
OCC(O)C(Cl)CCl (configuration not stated)	> 100 µM (inactive)	> 100 µM (inactive)	> 100 µM (inactive)	> 100 µM (inactive)	> 100 µM (inactive)	> 100 µM (inactive)	> 100 µM (inactive)	> 100 µM (inactive)	> 100 µM (inactive)	> 100 µM (inactive)	> 100 µM (inactive)	> 100 µM (inactive)	> 100 µM (inactive)	> 100 µM (inactive)	> 100 µM (inactive)	> 100 µM (inactive)	31.5 µM (inactive)	> 100 µM (inactive)	> 100 µM (inactive)
COC(=O)C[C@H](CCSC)NC(=O)C[C@H](CCSC)NC(=O)C[C@H](CCSC)NC(=O)OC(C)(C)C	39.4 µM (inactive)	> 100 µM (inactive)	> 100 µM (inactive)	87.3 µM (inactive)	> 100 µM (inactive)	38.1 µM (inactive)	> 100 µM (inactive)	37.1 µM (inactive)	21.8 µM (inactive)	33.6 µM (inactive)	22.5 µM (inactive)	> 100 µM (inactive)	35.2 µM (inactive)	63.1 µM (inactive)	27.9 µM (inactive)	13.4 µM (inactive)	> 100 µM (inactive)	20.7 µM (inactive)	> 100 µM (inactive)
CCOC(=O)NC(Nc1ccc(C(=O)OCC)cc1)(C(F)(F)F)C(F)(F)F	> 100 µM (inactive)	> 100 µM (inactive)	79.8 µM (inactive)	> 100 µM (inactive)	> 100 µM (inactive)	> 100 µM (inactive)	45 µM (inactive)	> 100 µM (inactive)	> 100 µM (inactive)	> 100 µM (inactive)	> 100 µM (inactive)	11.1 µM (inactive)	> 100 µM (inactive)	49 µM (inactive)	13.1 µM (inactive)	> 100 µM (inactive)	> 100 µM (inactive)	96.8 µM (inactive)	> 100 µM (inactive)
O=C1SC(SCc2ccccc2)=NC12CC2c1ccccc1 (configuration not stated)	29 µM (inactive)	7.62 µM (inactive)	18.5 µM (inactive)	29 µM (inactive)	19 µM (inactive)	18.8 µM (inactive)	23.3 µM (inactive)	16.6 µM (inactive)	19.7 µM (inactive)	19.4 µM (inactive)	27.7 µM (inactive)	1.34 µM (inactive)	14.5 µM (inactive)	28.5 µM (inactive)	17.1 µM (inactive)	29.2 µM (inactive)	17.7 µM (inactive)	26.7 µM (inactive)	21.3 µM (inactive)
CSc1nc(SC)c2c(C)c(Br)[nH]c2n1	> 100 µM (inactive)	> 100 µM (inactive)	> 100 µM (inactive)	> 100 µM (inactive)	> 100 µM (inactive)	30.9 µM (inactive)	> 100 µM (inactive)	> 100 µM (inactive)	> 100 µM (inactive)	> 100 µM (inactive)	> 100 µM (inactive)	> 100 µM (inactive)	> 100 µM (inactive)	> 100 µM (inactive)	> 100 µM (inactive)	> 100 µM (inactive)	> 100 µM (inactive)	> 100 µM (inactive)	> 100 µM (inactive)
